As a reminder, the EC50 is the concentration needed to bring the measured effect to its halfway point. The Km is the concentration of substrate that gives half-maximal velocity.

The target of one assay is tyrosinase. The arrangement: method as in PMID 33782442. The conditions noted are these: read-out: EC50 of activation effect on tyrosinase; cited from earlier work.
Another assay concerns mushroom tyrosinase. Kind of assay: Enzyme kinetic analysis (Lineweaver-Burk) of mushroom tyrosinase. The format is biochemical. The note with it: sample used as substrate. The method, then:
The enzyme kinetics was determined by referring to the previously reported method with appropriate modifications. […] As described in Section 2.5, a blank group, a blank control group and a sample control group were set up. The initial rate of dopachrome formation in the reaction mixture was determined as an increase in absorbance at a wavelength of 475 nm per minute by using a microplate reader. The Michaelis constant (Km) and maximal velocity (Vmax) of tyrosinase activity were determined by Lineweaver-Burk plots using different concentrations of (+)-catechin and (−)-epicatechin as substrates.

Assay [1] concerns the target Tyrosinase (from mushroom, EC1.14.18.1). Kind of assay: Mushroom tyrosinase activity assay (L-DOPA substrate, absorbance at 475 nm). It counts as biochemical. The conditions noted are these: effective concentration to promote relative enzyme activity at 150%, 37 °C, 30 min, read-out: EC50 of activation effect on tyrosinase. The method, then:
The tyrosinase activity was determined by referring to the previously reported method with appropriate modifications. […] The reaction was carried out at 37 °C for 30 min and the absorbance values were recorded at 475 nm with a Spectra Max M5 microplate reader (Molecular Device, Sunnyvale, CA, USA). Blank group (system containing PBS, enzyme and L-DOPA solution), blank control group (system containing PBS and L-DOPA solution), and sample control group (system containing PBS, sample solution and L-DOPA solution) were also set up. The relative enzyme activity of each sample group was calculated using the following formula: Relative enzyme activity (%) = [(B1 − B2)/(A1 − A2)] × 100 where A1 = absorbance of the blank group, A2 = absorbance of the blank control group, B1 = absorbance of the sample group and B2 = absorbance of the sample control group. The effective concentration of each sample to promote relative enzyme activity at 150% was calculated as EC50 value.

`O=C(CCc1ccc(O)c(O)c1)c1c(O)cc(O)c([C@@H]2O[C@H](CO)[C@@H](O)[C@H](O)[C@H]2O)c1O` [Aspalathin]: at tyrosinase, the EC50 is 265 ± 4.56 µM.

As to `Oc1cc(O)c2c(c1)O[C@H](c1ccc(O)c(O)c1)[C@H](O)C2` [(−)-Epicatechin], the Km worked out at 11.2 µM in the assay with mushroom tyrosinase (DOPA 1 mM), 11.7 µM in the assay on mushroom tyrosinase (DOPA 1.5 mM) and 18 µM with mushroom tyrosinase (DOPA 2 mM). Further, the “Vm of tyrosinase activity” value was determined as 85.47 in the assay on mushroom tyrosinase (DOPA 1 mM), 80.00 in the assay with mushroom tyrosinase (DOPA 1.5 mM) and 71.94 in the assay with mushroom tyrosinase (DOPA 2 mM). For the same molecule, the EC50 in assay [1] stood at 36.7 ± 0.43 µM.

With `Oc1cc(O)c2c(c1)OC(c1ccc(O)c(O)c1)C(O)C2` (single isomer, unassigned; (+)) [(+)-Catechin], the values for the Km with mushroom tyrosinase (DOPA 1 mM), in the assay with mushroom tyrosinase (DOPA 1.5 mM) and with mushroom tyrosinase (DOPA 2 mM) were 62 µM, 74.3 µM and 87 µM, respectively. The “Vm of tyrosinase activity” value amounted to 200.00 in the assay on mushroom tyrosinase (DOPA 1 mM), 175.44 in the assay on mushroom tyrosinase (DOPA 1.5 mM) and 158.73 in the assay with mushroom tyrosinase (DOPA 2 mM). Moreover, the 50% effective concentration (EC50) in assay [1] came out at 32.5 ± 1.7 µM.
